Source: ChEMBL document CHEMBL4513161, “CO-ADD screening of MMV (CH) - Pandemic Response Box” (2021)
≈ marks a conversion by molar mass, not a printed value.

Legend:
Acinetobacter baumannii = experiment: microbe, parasite or virus in culture; details: ATCC 19606, 18 h, ASSAY_TEST Inhibition of Bacterial Growth, detection method Absorption (OD600), MEDIA CAMHB, plate type 384well, NBS, CORNING #3640
Description: Antibacterial activity against Acinetobacter baumannii ATCC 19606 (CO-ADD:GN_034); MIC in CAMBH media using NBS plates, by OD600

Candida albicans = experiment: microbe, parasite or virus in culture; details: ATCC 90028, ASSAY_TEST Inhibition of Fungal Growth, detection method Absorption (OD530), plate type 384well, NBS, CORNING #3640
Description: Antifungal activity against Candida albicans ATCC 90028 (CO-ADD:FG_001); MIC in YNB media using NBS plates, by OD630

Pseudomonas aeruginosa [1] = experiment: Antibacterial activity against Pseudomonas aeruginosa PAO397 [PAO1 d(mexAB-oprM) d(mexCD-oprJ) d(mexEF-oprN) d(mexJKL) d(mexXY) d(opmH)] (CO-ADD:GN_211); MIC in CAMBH media using NBS plates, by OD(600); assay type: functional; details: ASSAY_TEST Inhibition of Bacterial Growth, detection method Absorption (OD600), MEDIA CAMHB, plate type 384well, CORNING #3640, time 18 hr
HEK293 = experiment: cells; assay type: functional, Homo sapiens, ATCC CRL1573; details: Homo sapiens, ATCC CRL1573, HEK293; ASSAY_TEST Inhibition of Cell Viability; detection method Resazurin; Fluorescence (ex560/em590); MEDIA DMEM with 10% FBS; plate type 384well; TC; CORNING #3712; time 18 hr; read-out: CC50
Staphylococcus aureus = experiment: microbe, parasite or virus in culture; details: ATCC 43300, 18 h, ASSAY_TEST Inhibition of Bacterial Growth, detection method Absorption (OD600), MEDIA CAMHB, plate type 384well, NBS, CORNING #3640
Description: Antibacterial activity against Staphylococcus aureus MRSA ATCC 43300 (CO-ADD:GP_020); MIC in CAMBH media, using NBS plates, by OD(600)

Pseudomonas aeruginosa [2] = experiment: microbe, parasite or virus in culture; details: ATCC 27853, 18 h, ASSAY_TEST Inhibition of Bacterial Growth, detection method Absorption (OD600), MEDIA CAMHB, plate type 384well, NBS, CORNING #3640
Description: Antibacterial activity against Pseudomonas aeruginosa ATCC 27853 (CO-ADD:GN_042); MIC in CAMBH media using NBS plates, by OD(600)

Klebsiella pneumoniae = experiment: microbe, parasite or virus in culture; details: ATCC 700603, 18 h, ASSAY_TEST Inhibition of Bacterial Growth, detection method Absorption (OD600), MEDIA CAMHB, plate type 384well, NBS, CORNING #3640
Description: Antibacterial activity against Klebsiella pneumoniae MDR ATCC 70063 (CO-ADD:GN_003); MIC in CAMBH media using NBS plates, by OD(600)

Escherichia coli = experiment: microbe, parasite or virus in culture; details: ATCC 25922, 18 h, ASSAY_TEST Inhibition of Bacterial Growth, detection method Absorption (OD600), MEDIA CAMHB, plate type 384well, NBS, CORNING #3640
Description: Antibacterial activity against Escherichia coli ATCC 25922 (CO-ADD:GN_001); MIC in CAMBH media using NBS plates, by OD(600)

Description for Cryptococcus neoformans: Antifungal activity against Cryptococcus neoformans H99 ATCC 208821 (CO-ADD:FG_002); MIC in YNB media using NBS plates, by Resazurin OD(600-570)

| Compound | MIC (Acinetobacter baumannii) | MIC (Candida albicans) | MIC (Pseudomonas aeruginosa [1]) | MIC (Cryptococcus neoformans) | CC50 (HEK293) | MIC (Staphylococcus aureus) | MIC (Pseudomonas aeruginosa [2]) | MIC (Klebsiella pneumoniae) | MIC (Escherichia coli) |
| --- | --- | --- | --- | --- | --- | --- | --- | --- | --- |
| Cn1cncc1[C@@](N)(c1ccc(Cl)cc1)c1ccc2c(c1)c(-c1cccc(Cl)c1)cc(=O)n2C [TIPIFARNIB] | > 20 µM | > 20 µM | > 20 µM | > 20 µM | 8.09 µM | 20 µM (≈ 9.79 µg/mL) | > 20 µM | > 20 µM | > 20 µM |
| COc1ccc2c(c1)cc(CNC(=O)c1cc3ccccc3o1)n2CC(=O)O | > 20 µM | > 20 µM | > 20 µM | > 20 µM | > 20 µM | > 20 µM | > 20 µM | > 20 µM | > 20 µM |
| Cc1cccc(CC(=O)N[C@H]2CCOC2=O)c1 | > 20 µM | > 20 µM | > 20 µM | > 20 µM | > 20 µM | > 20 µM | > 20 µM | > 20 µM | > 20 µM |
| CCCCN1C[C@H](O)[C@@H](O)[C@H](O)[C@H]1CO | > 20 µM | > 20 µM | > 20 µM | > 20 µM | > 20 µM | > 20 µM | > 20 µM | > 20 µM | > 20 µM |
| Fc1ccc2c(/C=C/c3cccnc3)c[nH]c2c1 | > 20 µM | > 20 µM | > 20 µM | > 20 µM | > 20 µM | > 20 µM | > 20 µM | > 20 µM | > 20 µM |
| O=C(NN1C(=O)[C@@H]2[C@@H]3C=C[C@@H]([C@H]4C[C@@H]34)[C@@H]2C1=O)c1ccc(C(F)(F)F)cc1 [TECOVIRIMAT] | > 20 µM | > 20 µM | > 20 µM | > 20 µM | > 20 µM | > 20 µM | > 20 µM | > 20 µM | > 20 µM |
| CCNC(=O)Nc1cc2c(-c3ccnc(C)c3)ccc(CNC(=O)OC)c2cn1 | > 20 µM | > 20 µM | 2.5 µM (≈ 0.984 µg/mL) | > 20 µM | > 20 µM | 0.312 µM (≈ 0.123 µg/mL) | > 20 µM | > 20 µM | > 20 µM |
| CO/N=C(\C(=O)N[C@@H]1C(=O)N2C(C(=O)OCOC(=O)C(C)(C)C)=C(/C=C\c3scnc3C)CS[C@H]12)c1csc(N)n1 [CEFDITOREN PIVOXIL] | > 20 µM | > 20 µM | > 20 µM | > 20 µM | > 20 µM | > 20 µM | > 20 µM | > 20 µM | > 20 µM |
| CC(C)N(c1cc(-c2ccccc2)sc1C(=O)O)C(=O)[C@H]1CC[C@H](C)CC1 | > 20 µM | > 20 µM | > 20 µM | > 20 µM | > 20 µM | > 20 µM | > 20 µM | > 20 µM | > 20 µM |
| C[C@H](c1cccc2ccccc12)N(C)Cc1ccccc1 | > 20 µM | > 20 µM | > 20 µM | > 20 µM | > 20 µM | > 20 µM | > 20 µM | > 20 µM | > 20 µM |
| COc1cc(NS(=O)(=O)c2ccc(C)cc2)c2ncccc2c1 | > 20 µM | > 20 µM | > 20 µM | > 20 µM | 5.41 µM | > 20 µM | > 20 µM | > 20 µM | > 20 µM |
| O=C(O)c1ccc(-n2nc(-c3ccccc3O)nc2-c2ccccc2O)cc1 [DEFERASIROX] | > 20 µM | > 20 µM | > 20 µM | > 20 µM | > 20 µM | > 20 µM | > 20 µM | > 20 µM | > 20 µM |
| CCOc1ccc(/C=N/NC(=O)C2CC2c2ccc(C(C)(C)C)cc2)cc1OCC (stereo unspecified) | > 20 µM | > 20 µM | > 20 µM | > 20 µM | > 20 µM | > 20 µM | > 20 µM | > 20 µM | > 20 µM |
| FC(F)(F)Oc1ccc(Nc2ccc3cccc(Cl)c3n2)cc1 [OBEFAZIMOD] | > 20 µM | > 20 µM | > 20 µM | > 20 µM | > 20 µM | > 20 µM | > 20 µM | > 20 µM | > 20 µM |
| O=[N+]([O-])c1cn2c(n1)OC[C@@H](OCc1ccc(OC(F)(F)F)cc1)C2 [PRETOMANID] | > 20 µM | > 20 µM | > 20 µM | > 20 µM | > 20 µM | > 20 µM | > 20 µM | > 20 µM | > 20 µM |
| CC[C@@]1(O)C(=O)OCc2c1cc1n(c2=O)Cc2cc3c([N+](=O)[O-])cccc3nc2-1 [RUBITECAN] | > 20 µM | > 20 µM | > 20 µM | > 20 µM | 0.695 µM | > 20 µM | > 20 µM | > 20 µM | > 20 µM |
| Nc1nc(O)c2ncn([C@@H]3O[C@H](CO)[C@@H](O)[C@H]3F)c2n1 | > 20 µM | > 20 µM | > 20 µM | > 20 µM | > 20 µM | > 20 µM | > 20 µM | > 20 µM | > 20 µM |
| CSC[C@H]1CN(Cc2c[nH]c3c(N)ncnc23)C[C@@H]1O | > 20 µM | > 20 µM | > 20 µM | > 20 µM | > 20 µM | > 20 µM | > 20 µM | > 20 µM | > 20 µM |
| COc1cc(C(C(=O)NC2CCCCC2)N(C(=O)Cc2c[nH]c3ccccc23)c2ccc(C(C)C)cc2)cc(OC)c1OC (stereo unspecified) | > 20 µM | > 20 µM | > 20 µM | > 20 µM | > 20 µM | > 20 µM | > 20 µM | > 20 µM | > 20 µM |
| NC(=O)c1cnc2ccc(S(=O)(=O)c3ccccc3)cc2c1Nc1ccc(O)cc1 | > 20 µM | > 20 µM | > 20 µM | > 20 µM | > 20 µM | > 20 µM | > 20 µM | > 20 µM | > 20 µM |
| O=C(O)/C=C/C=C/c1cccc(Oc2cc(Cl)cc(Cl)c2)c1 | > 20 µM | > 20 µM | > 20 µM | > 20 µM | > 20 µM | > 20 µM | > 20 µM | > 20 µM | > 20 µM |
| CC(C)Oc1cccc(NC(=O)c2ccccc2C(F)(F)F)c1 [FLUTOLANIL] | > 20 µM | > 20 µM | > 20 µM | > 20 µM | > 20 µM | > 20 µM | > 20 µM | > 20 µM | > 20 µM |
| CCCNc1ccc(S(=O)(=O)Nc2cc(C)on2)cc1 | > 20 µM | > 20 µM | > 20 µM | > 20 µM | > 20 µM | > 20 µM | > 20 µM | > 20 µM | > 20 µM |
| CC(C)(C)c1ccc(OCCn2nc(C(=O)O)c3ccccc3c2=O)cc1 | > 20 µM | > 20 µM | > 20 µM | > 20 µM | > 20 µM | > 20 µM | > 20 µM | > 20 µM | > 20 µM |
